Where two headings read alike, the source gives them in different places.
Legend:
Type in all cases: physicochemical
[1] = Light characteristics: visible absorption spectrum in methanol and as thin layer over glass; settings: for Maximum absorption (nm) CH3OH: dissolved in methanol; for Maximum absorption (nm) Thin Layer: formed into layer over glass; for Shift of absorption maximum compared with conventional related compounds: thin layer, in words
Description: The cyanine dyes as listed in Table 1 of the present invention and known compounds represented by Chemical Formulae 33 and 34 as controls were measured for visible absorption spectrum when dissolved in methanol and formed into layers over glasses.

[2] = Solubility of cyanine dye in TFP; settings: in TFP at 20° C.
Description: For the cyanine dyes in Table 1, they were measured for solubility in TFP at 20° C.
When coating over the substrates for optical recording media, the cyanine dyes are generally prepared into 0.1-10 w/w % solutions.

[3] = Decomposition point by DTA and TGA; settings: for Decomposition point (° C.): temperature increase 10° C./min; for Rapidity of decomposition among Chemical Formulae 1, 4 and 6 to 8 / Decomposability at temperatures around decomposition point: in words
From the text: An adequate amount of either of the cyanine dyes in Table 1 as a test specimen was placed in a vessel and subjected to conventional differential thermal analysis (hereinafter abbreviated as “DTA”) and thermogravimetric analysis (hereinafter abbreviated as “TGA”) using “MODEL TG/DTA 220”, a digital thermo analyzer commercialized by Seiko Instruments Inc., Tokyo, Japan, to determine the melting point, i.e., a temperature at which the cyanine dyes as test specimens begin to absorb heat on […], and to determine the decomposition point, i.e., a temperature at which the cyanine dyes as test specimens begin to lose weight on […]. In parallel, conventional related compounds represented by Chemical Formulae 33 and 34 were analyzed similarly as above. FIGS. 2 and 3 are respectively the results of the cyanine dye represented by Chemical Formula 4 of the present invention and conventional related compound represented by Chemical Formula 34. In DTA and TGA, the environmental temperature was set to an increasing temperature mode at a rate of 10° C./min.
As evident from Table 1 and FIGS. 2 and 3, all the conventional related compounds had melting points and decomposition points which were different from each other, and very slowly decomposed at temperatures around their decomposition points. […] Most specifically, conventional known compounds had both melting points and decomposition points which were different from each other, i.e., the difference ranged from 17 to 108° C., while most of the cyanine dyes of the present invention had decomposition points which were undistinguishable from their melting points or had only the decomposition points.

[4] = Decomposition rate: differential calorimetric curve (DSC), half value width; settings: for Calorific value / Decomposition initiating point / Decomposition peak point / Half value width: DSC, 10° C./min; for Calorific value / Decomposition initiating point / Decomposition peak point: nitrogen atmosphere; for Half value width: width of decomposition peak at half calorific value, nitrogen
Description: For the cyanine dyes represented by Chemical Formulae 4, 6 and 8 of the present invention, they were in a usual manner examined for differential calorimetric curve when heated under an increasing temperature rate of 10° C./min and nitrogen atmospheric conditions using “MODEL DSC220U”, a digital thermo analyzer commercialized by Seiko Instruments Inc., Tokyo, Japan. In parallel, conventional cyanine dye represented by Chemical Formula 33 was examined for differential calorimetric curve similarly as above. FIGS. 4 and 5 are respectively differential calorimetric curves for the cyanine dyes represented by Chemical Formulae 4 and 33.
Based on the results of the differential calorimetric curves, the half calorific vallues at descomposition peaks for each cyanine dyes were determined, and the thermal difference between the two points, having the determined half calorific values at both ends of each descomposition peaks (hereinafter designated as “a half value width”), was determined.
As evident from the results in Table 2 and FIGS. 4 and 5, the cyanine dyes of the present invention instantly and promptly decomposed in spite of their substantially the same calorific-values as compared with conventional one. […] Similarly as in conventional related compounds represented by Formulae 33 and 34, dyes with a relatively-slow decomposition rate are substantially difficult to form stable minute pits at a relatively-high density on a restricted recording surface of high-density optical recording media such as DVD-Rs, as mentioned above. Varying depending on glass transition temperature of substrate, when used as a light absorbent in optical recording media, dyes with a lower decomposition point can be generally used to write information by using a lower-power laser beam as a merit, however, as a demerit, when exposed to laser beam for a relatively-long period of time on reading, the dyes tend to accumulate heat and deform parts around pits and other parts free of pit on recording surfaces, resulting in large jitters and reading errors. The cyanine dyes of the present invention substantially absorb a visible light with a wavelength around 650 nm when formed into a thin layer, have decomposition points which are undistinguishable from their melting points or only have the decomposition points of relatively-high temperatures, and have an outstandingly-high decomposition rate at around the decomposition points. These characteristics mean that high-density optical recording media, having a relatively-small jitter, insubstantial reading error, and satisfactory stability of exposure to environmental light such as reading light and natural light, can be obtained by using the cyanine dyes of the present invention as light absorbents. The reason of why the half value width was employed as an index for the decomposability in this example was due to the fact that it can effectively evaluate the decomposition rate of test specimens.

SMILES: CCN1C(=CC=CC2=[N+](CC)c3ccc([N+](=O)[O-])cc3C2(C)C)C(C)(C)c2ccc3ccccc3c21.[O-][Cl+3]([O-])([O-])[O-] [Chemical Formula 15]
- Maximum absorption (nm) CH3OH [1]: 562 nm
- Maximum absorption (nm) Thin Layer [1]: 617 nm
- Shift of absorption maximum compared with conventional related compounds [1]: shifted their absorption maxima to longer wavelengths by a large margin
- Solubility [2]: 229 mg/mL
- Decomposition point (° C.) [3]: 270.7 °C

SMILES: CCCCN1C(=CC=CC2=[N+](CCC)c3ccc([N+](=O)[O-])cc3C2(C)C)C(C)(C)c2c1ccc1ccccc21.[O-][Cl+3]([O-])([O-])[O-] [Chemical Formula 7]
- Maximum absorption (nm) CH3OH [1]: 577 nm
- Maximum absorption (nm) Thin Layer [1]: 609 nm
- Shift of absorption maximum compared with conventional related compounds [1]: shifted their absorption maxima to longer wavelengths by a large margin
- Solubility [2]: 210 mg/mL
- Rapidity of decomposition among Chemical Formulae 1, 4 and 6 to 8 [3]: decomposed most rapidly
- Decomposition point (° C.) [3]: 261.2 °C

SMILES: CCCN1C(=CC=CC2=[N+](CCC)c3ccc([N+](=O)[O-])cc3C2(C)C)C(C)(C)c2c1ccc1ccccc21.[O-][Cl+3]([O-])([O-])[O-] [Chemical Formula 6]
- Maximum absorption (nm) CH3OH [1]: 578 nm
- Maximum absorption (nm) Thin Layer [1]: 609 nm
- Shift of absorption maximum compared with conventional related compounds [1]: shifted their absorption maxima to longer wavelengths by a large margin
- Solubility [2]: 164 mg/mL
- Rapidity of decomposition among Chemical Formulae 1, 4 and 6 to 8 [3]: decomposed most rapidly
- Calorific value [4]: 1827 mJ/mg
- Decomposition initiating point [4]: 279.5 °C
- Decomposition peak point [4]: 285.5 °C
- Half value width [4]: 13.2 °C

SMILES: CCN1C(=CC=CC2=[N+](CC)c3ccc(S(=O)(=O)N(CC)CC)cc3C2(C)C)C(C)(C)c2c1ccc1ccccc21.[O-][Cl+3]([O-])([O-])[O-] [Chemical Formula 27]
- Maximum absorption (nm) CH3OH [1]: 571 nm
- Maximum absorption (nm) Thin Layer [1]: 592 nm
- Solubility [2]: >200 mg/mL

SMILES: CCCCN1C(=CC=CC2=[N+](C)c3ccc(S(=O)(=O)N(CC)CC)cc3C2(C)C)C(C)(C)c2c1ccc1ccccc21.O=[N+]([O-])c1ccc2c(c1)N=Nc1c(ccc3ccccc13)[O][Ni-]1([O]2)[O]c2ccc([N+](=O)[O-])cc2N=Nc2c(ccc3ccccc23)[O]1 [Chemical Formula 26]
- Maximum absorption (nm) CH3OH [1]: 570 nm
- Maximum absorption (nm) Thin Layer [1]: 594 nm
- Solubility [2]: 127 mg/mL
- Decomposition point (° C.) [3]: 257.3 °C

SMILES: CCN1C(=CC=CC2=[N+](CC)c3ccc([N+](=O)[O-])cc3C2(C)C)C(C)(C)c2c1ccc1ccccc21.[O-][Cl+3]([O-])([O-])[O-] [Chemical Formula 4]
- Maximum absorption (nm) CH3OH [1]: 576 nm
- Maximum absorption (nm) Thin Layer [1]: 609 nm
- Shift of absorption maximum compared with conventional related compounds [1]: shifted their absorption maxima to longer wavelengths by a large margin
- Solubility [2]: 126 mg/mL
- Decomposability at temperatures around decomposition point [3]: instantly decomposed at once
- Rapidity of decomposition among Chemical Formulae 1, 4 and 6 to 8 [3]: decomposed most rapidly
- Calorific value [4]: 1826 mJ/mg
- Decomposition initiating point [4]: 295.8 °C
- Decomposition peak point [4]: 298.6 °C
- Half value width as level of that of conventional cyanine dye ([4]; relative to Chemical Formula 33): ⅙
- Half value width [4]: 7.7 °C

SMILES: CCCCN1C(=CC=CC2=[N+](C)c3ccc([N+](=O)[O-])cc3C2(C)C)C(C)(C)c2c1ccc1ccccc21.CCN(CC)c1ccc2c(c1)[O][Co-]1([O]c3ccc([N+](=O)[O-])cc3N=N2)[O]c2ccc([N+](=O)[O-])cc2N=Nc2ccc(N(CC)CC)cc2[O]1 [Chemical Formula 3]
- Maximum absorption (nm) CH3OH [1]: 540 nm
- Maximum absorption (nm) Thin Layer [1]: 557 nm
- Solubility [2]: 22 mg/mL
- Decomposition point (° C.) [3]: 271.3 °C

SMILES: CCCCN1C(=CC=CC2=[N+](C)c3ccc(S(=O)(=O)N(CC)CC)cc3C2(C)C)C(C)(C)c2c1ccc1ccccc21.F[P-](F)(F)(F)(F)F [Chemical Formula 23]
- Maximum absorption (nm) CH3OH [1]: 591 nm
- Maximum absorption (nm) Thin Layer [1]: 591 nm
- Solubility [2]: >200 mg/mL
- Decomposition point (° C.) [3]: 273.5 °C

SMILES: CCCCN1C(=CC=CC2=[N+](C)c3ccc(S(=O)(=O)N(CC)CC)cc3C2(C)C)C(C)(C)c2c1ccc1ccccc21.CCN(CC)c1ccc2c(c1)[O][Co-]1([O]c3ccc([N+](=O)[O-])cc3N=N2)[O]c2ccc([N+](=O)[O-])cc2N=Nc2ccc(N(CC)CC)cc2[O]1 [Chemical Formula 24]
- Maximum absorption (nm) CH3OH [1]: 538 nm
- Maximum absorption (nm) Thin Layer [1]: 556 nm
- Solubility [2]: 197 mg/mL

SMILES: CN1C(=CC=CC2=[N+](C)c3ccc([N+](=O)[O-])cc3C2(C)C)C(C)(C)c2c1ccc1ccccc21 [Chemical Formula 1]
- Maximum absorption (nm) CH3OH [1]: 573 nm
- Maximum absorption (nm) Thin Layer [1]: 609 nm
- Shift of absorption maximum compared with conventional related compounds [1]: shifted their absorption maxima to longer wavelengths by a large margin
- Solubility ([2]; organic solvent or mixture, read-out: Solubility): 36 mg/mL
- Decomposability at temperatures around decomposition point [3]: instantly decomposed at once
- Rapidity of decomposition among Chemical Formulae 1, 4 and 6 to 8 [3]: decomposed most rapidly

SMILES: CCCCN1/C(=C/C=C/C2=[N+](CCCC)c3ccc(C)cc3C2(C)C)C(C)(C)c2c1ccc1ccccc21 [Chemical Formula 34, reference compound]
- Maximum absorption (nm) CH3OH [1]: 574 nm
- Maximum absorption (nm) Thin Layer [1]: 599 nm
- Decomposition point (° C.) [3]: 267 °C

SMILES: CCCCN1/C(=C/C=C/C2=[N+](CCCC)c3ccccc3C2(C)C)C(C)(C)c2c1ccc1ccccc21 [Chemical Formula 33, reference compound]
- Maximum absorption (nm) CH3OH [1]: 568 nm
- Maximum absorption (nm) Thin Layer [1]: 600 nm
- Decomposition point (° C.) [3]: 268.1 °C
- Calorific value [4]: 1467 mJ/mg
- Decomposition initiating point [4]: 255.4 °C
- Decomposition peak point [4]: 297.4 °C
- Half value width [4]: 49.9 °C

SMILES: CCCCN1C(=CC=CC2=[N+](CCCC)c3ccc([N+](=O)[O-])cc3C2(C)C)C(C)(C)c2c1ccc1ccccc21.[O-][Cl+3]([O-])([O-])[O-] [Chemical Formula 8]
- Maximum absorption (nm) CH3OH [1]: 577 nm
- Maximum absorption (nm) Thin Layer [1]: 609 nm
- Shift of absorption maximum compared with conventional related compounds [1]: shifted their absorption maxima to longer wavelengths by a large margin
- Solubility [2]: 245 mg/mL
- Decomposition point (° C.) [3]: 262.4 °C
- Calorific value [4]: 1663 mJ/mg
- Decomposition initiating point [4]: 249.9 °C
- Decomposition peak point [4]: 273.5 °C
- Half value width [4]: 32.2 °C

Source: patent US6413607B1, “Cyanine dyes” (Kabushiki Kaisha Hayashibara Seibutsu Kagaku Kenkyujo, priority 1999, dated 2002)
